Reference: the supplement of paper PMC12463676, “Small-molecule dissolution of stress granules by redox modulation benefits ALS models” (Nature Chemical Biology, 2025)

Tests used:
potassium arsenate = compound: O=[As]([O-])(O)O.[K+] [potassium arsenate]; test: thermal stability z-score vs DMSO; higher = more thermally stabilized by treatment; settings: HeLa; arsenate concentration 1 mM
Protocol: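 Cellular thermal proteome profiling in HeLa cells treated with 1 mM arsenate for 1 h (DMSO pretreatment), heated to ten temperatures (37-66.3 °C). Soluble protein was quantified by TMT mass spectrometry relative to DMSO controls; the thermal stability score was transformed to a z-score; mean of n = 3 experiments.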

lipoamide = compound: NC(=O)CCCCC1CCSS1 [lipoamide]; test: as above; settings: HeLa, lipoamide concentration 100 µM
Protocol: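 Cellular thermal proteome profiling in HeLa cells. Cells were treated with 100 µM lipoamide for 1 h, with or without 1 mM arsenate for a further 1 h, then heated to ten temperatures (37-66.3 °C), and soluble protein was quantified by TMT mass spectrometry relative to 0.1% DMSO controls. The thermal stability score (sum of log2 fold changes minus the abundance score) was transformed to a z-score; mean of n = 3 experiments.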

[1] = arsenate co-treatment: 1 mM arsenate 1 h
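Further: each temperature applied for 3 min, abundance score taken as mean log2 fold change at the two lowest temperatures, z-score obtained by mean subtraction and division by SD.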

LAMTOR3 (UniProt Q9UHA4)
UniProt Q9UHA4, sequence (Q9UHA4 whole entry): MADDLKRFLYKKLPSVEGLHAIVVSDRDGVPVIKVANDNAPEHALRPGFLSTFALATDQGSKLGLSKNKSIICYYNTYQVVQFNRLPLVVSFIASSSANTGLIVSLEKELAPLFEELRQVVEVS
thermal stability z-score (potassium arsenate): -0.713 | thermal stability z-score (lipoamide; [1]): 1.21 | thermal stability z-score (lipoamide; arsenate co-treatment: none): 0.41

VPS11 (UniProt Q9H270)
thermal stability z-score (potassium arsenate): 0.734 | thermal stability z-score (lipoamide; [1]): -0.214 | thermal stability z-score (lipoamide; arsenate co-treatment: none): -0.578

LARP4 (UniProt Q71RC2)
thermal stability z-score (potassium arsenate): -0.708 | thermal stability z-score (lipoamide; [1]): -0.463 | thermal stability z-score (lipoamide; arsenate co-treatment: none): -0.301

COMMD3 (UniProt Q9UBI1)
thermal stability z-score (potassium arsenate): -1.12 | thermal stability z-score (lipoamide; [1]): -0.911 | thermal stability z-score (lipoamide; arsenate co-treatment: none): -0.0897

CCSMST1 (UniProt Q4G0I0)
thermal stability z-score (potassium arsenate): 0.624 | thermal stability z-score (lipoamide; [1]): 2.5 | thermal stability z-score (lipoamide; arsenate co-treatment: none): 2.37

DNPH1 (UniProt O43598)
thermal stability z-score (potassium arsenate): -0.0373 | thermal stability z-score (lipoamide; [1]): 0.0889 | thermal stability z-score (lipoamide; arsenate co-treatment: none): -0.11

NDUFA5 (UniProt Q16718)
UniProt Q16718, sequence (Q16718 whole entry): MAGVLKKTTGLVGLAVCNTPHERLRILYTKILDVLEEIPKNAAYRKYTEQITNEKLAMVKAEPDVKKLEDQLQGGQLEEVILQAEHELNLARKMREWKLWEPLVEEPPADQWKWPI
thermal stability z-score (potassium arsenate): 0.101 | thermal stability z-score (lipoamide; [1]): -0.0074 | thermal stability z-score (lipoamide; arsenate co-treatment: none): -0.146

SARS (UniProt P49591)
thermal stability z-score (potassium arsenate): 2.1 | thermal stability z-score (lipoamide; [1]): 1.63 | thermal stability z-score (lipoamide; arsenate co-treatment: none): 1.23

WDR43 (UniProt Q15061)
thermal stability z-score (potassium arsenate): -0.817 | thermal stability z-score (lipoamide; [1]): -1.62 | thermal stability z-score (lipoamide; arsenate co-treatment: none): -1.02

ZCCHC6 (UniProt Q5VYS8)
UniProt Q5VYS8, sequence (Q5VYS8 whole entry): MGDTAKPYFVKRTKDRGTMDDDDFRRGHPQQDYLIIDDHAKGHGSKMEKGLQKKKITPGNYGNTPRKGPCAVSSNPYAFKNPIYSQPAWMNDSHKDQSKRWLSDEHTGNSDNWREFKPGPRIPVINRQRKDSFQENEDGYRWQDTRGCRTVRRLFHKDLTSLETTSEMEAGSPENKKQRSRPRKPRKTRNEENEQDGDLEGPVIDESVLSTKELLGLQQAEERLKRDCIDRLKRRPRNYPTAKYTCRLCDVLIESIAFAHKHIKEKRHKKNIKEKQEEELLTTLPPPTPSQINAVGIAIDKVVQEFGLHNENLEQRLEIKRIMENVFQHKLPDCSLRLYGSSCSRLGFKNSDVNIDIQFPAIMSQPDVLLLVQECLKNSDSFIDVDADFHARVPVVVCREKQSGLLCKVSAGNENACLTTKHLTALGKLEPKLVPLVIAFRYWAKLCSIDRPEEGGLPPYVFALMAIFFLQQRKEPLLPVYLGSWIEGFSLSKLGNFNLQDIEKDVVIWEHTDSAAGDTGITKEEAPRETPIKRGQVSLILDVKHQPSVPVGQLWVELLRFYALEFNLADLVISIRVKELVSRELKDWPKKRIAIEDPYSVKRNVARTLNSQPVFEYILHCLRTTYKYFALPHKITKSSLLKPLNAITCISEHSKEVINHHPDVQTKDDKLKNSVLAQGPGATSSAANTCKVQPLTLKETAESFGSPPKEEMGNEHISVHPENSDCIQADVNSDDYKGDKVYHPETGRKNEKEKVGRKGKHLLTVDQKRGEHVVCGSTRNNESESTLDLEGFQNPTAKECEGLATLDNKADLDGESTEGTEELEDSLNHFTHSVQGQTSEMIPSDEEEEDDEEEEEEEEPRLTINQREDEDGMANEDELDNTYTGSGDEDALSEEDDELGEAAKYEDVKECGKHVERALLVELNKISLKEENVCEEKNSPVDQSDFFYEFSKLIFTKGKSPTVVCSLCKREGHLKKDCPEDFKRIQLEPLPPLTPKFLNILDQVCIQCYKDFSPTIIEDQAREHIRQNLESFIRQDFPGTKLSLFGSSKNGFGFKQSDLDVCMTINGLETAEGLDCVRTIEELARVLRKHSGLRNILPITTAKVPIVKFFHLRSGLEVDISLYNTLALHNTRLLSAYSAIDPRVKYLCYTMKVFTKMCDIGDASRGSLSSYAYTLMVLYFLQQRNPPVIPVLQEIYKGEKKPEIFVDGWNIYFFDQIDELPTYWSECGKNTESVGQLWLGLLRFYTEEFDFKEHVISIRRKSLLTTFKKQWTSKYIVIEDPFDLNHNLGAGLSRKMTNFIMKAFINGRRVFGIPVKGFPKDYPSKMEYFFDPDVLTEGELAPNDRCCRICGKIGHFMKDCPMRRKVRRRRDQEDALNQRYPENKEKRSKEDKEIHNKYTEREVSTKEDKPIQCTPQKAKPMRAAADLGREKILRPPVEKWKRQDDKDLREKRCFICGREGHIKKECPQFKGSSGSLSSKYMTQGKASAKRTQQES
thermal stability z-score (potassium arsenate): -0.0705 | thermal stability z-score (lipoamide; [1]): -0.043 | thermal stability z-score (lipoamide; arsenate co-treatment: none): -0.0119

CRK (UniProt P46108)
UniProt P46108, sequence (P46108 whole entry): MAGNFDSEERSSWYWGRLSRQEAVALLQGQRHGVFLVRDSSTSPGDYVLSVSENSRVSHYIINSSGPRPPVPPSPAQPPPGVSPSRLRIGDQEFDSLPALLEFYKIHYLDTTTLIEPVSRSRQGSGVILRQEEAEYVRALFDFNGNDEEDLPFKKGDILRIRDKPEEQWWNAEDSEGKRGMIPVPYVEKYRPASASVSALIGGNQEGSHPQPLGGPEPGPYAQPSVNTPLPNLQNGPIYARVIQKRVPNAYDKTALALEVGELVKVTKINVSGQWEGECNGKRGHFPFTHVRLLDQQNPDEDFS
thermal stability z-score (potassium arsenate): 1.2 | thermal stability z-score (lipoamide; [1]): 0.951 | thermal stability z-score (lipoamide; arsenate co-treatment: none): 0.233

SCAMP2 (UniProt O15127)
thermal stability z-score (potassium arsenate): -1.4 | thermal stability z-score (lipoamide; [1]): 0.21 | thermal stability z-score (lipoamide; arsenate co-treatment: none): -0.804

RELB (UniProt Q01201)
thermal stability z-score (potassium arsenate): 0.048 | thermal stability z-score (lipoamide; [1]): -0.128 | thermal stability z-score (lipoamide; arsenate co-treatment: none): -0.07

CHPF2 (UniProt Q9P2E5)
thermal stability z-score (potassium arsenate): -0.154 | thermal stability z-score (lipoamide; [1]): -0.824 | thermal stability z-score (lipoamide; arsenate co-treatment: none): -0.516

LRBA (UniProt P50851)
thermal stability z-score (potassium arsenate): 0.326 | thermal stability z-score (lipoamide; [1]): 0.015 | thermal stability z-score (lipoamide; arsenate co-treatment: none): 0.0915

SRSF6 (UniProt Q13247)
thermal stability z-score (potassium arsenate): -0.598 | thermal stability z-score (lipoamide; [1]): 1.75 | thermal stability z-score (lipoamide; arsenate co-treatment: none): 1.04

PLBD2 (UniProt Q8NHP8)
thermal stability z-score (potassium arsenate): 0.464 | thermal stability z-score (lipoamide; [1]): -0.0663 | thermal stability z-score (lipoamide; arsenate co-treatment: none): 0.0581

TEFM (UniProt Q96QE5)
thermal stability z-score (potassium arsenate): 0.106 | thermal stability z-score (lipoamide; [1]): 0.0966 | thermal stability z-score (lipoamide; arsenate co-treatment: none): 0.0631

THADA (UniProt Q6YHU6)
thermal stability z-score (potassium arsenate): -0.361 | thermal stability z-score (lipoamide; [1]): -0.42 | thermal stability z-score (lipoamide; arsenate co-treatment: none): -0.349

DENND1A (UniProt Q8TEH3)
thermal stability z-score (potassium arsenate): -0.185 | thermal stability z-score (lipoamide; [1]): -0.118 | thermal stability z-score (lipoamide; arsenate co-treatment: none): -0.0262

SQRDL (UniProt Q9Y6N5)
thermal stability z-score (potassium arsenate): -1.36 | thermal stability z-score (lipoamide; [1]): -0.541 | thermal stability z-score (lipoamide; arsenate co-treatment: none): -1.81

TMEM68 (UniProt Q96MH6)
UniProt Q96MH6, sequence (Q96MH6 whole entry): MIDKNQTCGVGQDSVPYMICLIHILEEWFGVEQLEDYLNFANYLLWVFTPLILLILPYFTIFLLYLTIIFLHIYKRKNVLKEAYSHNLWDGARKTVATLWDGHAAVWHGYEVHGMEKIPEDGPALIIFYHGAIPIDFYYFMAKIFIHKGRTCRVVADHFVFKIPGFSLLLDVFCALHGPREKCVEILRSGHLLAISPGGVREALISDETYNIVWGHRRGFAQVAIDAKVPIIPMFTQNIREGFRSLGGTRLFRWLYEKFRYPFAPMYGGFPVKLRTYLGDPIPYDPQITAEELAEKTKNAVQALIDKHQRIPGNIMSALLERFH
thermal stability z-score (potassium arsenate): -0.552 | thermal stability z-score (lipoamide; [1]): 0.361 | thermal stability z-score (lipoamide; arsenate co-treatment: none): -0.287

FAS (UniProt P25445)
thermal stability z-score (potassium arsenate): 0.539 | thermal stability z-score (lipoamide; [1]): 0.392 | thermal stability z-score (lipoamide; arsenate co-treatment: none): 0.673

NAP1L1 (UniProt P55209)
thermal stability z-score (potassium arsenate): -0.164 | thermal stability z-score (lipoamide; [1]): -0.552 | thermal stability z-score (lipoamide; arsenate co-treatment: none): -0.224

DSTN (UniProt P60981)
thermal stability z-score (potassium arsenate): -1.22 | thermal stability z-score (lipoamide; [1]): 0.471 | thermal stability z-score (lipoamide; arsenate co-treatment: none): 0.0123

SLC9A1 (UniProt P19634)
thermal stability z-score (potassium arsenate): 0.274 | thermal stability z-score (lipoamide; [1]): -0.174 | thermal stability z-score (lipoamide; arsenate co-treatment: none): -0.629

ITGA5 (UniProt P08648)
thermal stability z-score (potassium arsenate): 0.211 | thermal stability z-score (lipoamide; [1]): 0.408 | thermal stability z-score (lipoamide; arsenate co-treatment: none): 0.203

DTWD1 (UniProt Q8N5C7)
thermal stability z-score (potassium arsenate): -0.742 | thermal stability z-score (lipoamide; [1]): -0.492 | thermal stability z-score (lipoamide; arsenate co-treatment: none): -0.205

COPS3 (UniProt Q9UNS2)
thermal stability z-score (potassium arsenate): 0.344 | thermal stability z-score (lipoamide; [1]): 0.508 | thermal stability z-score (lipoamide; arsenate co-treatment: none): 0.201

PFDN4 (UniProt Q9NQP4)
thermal stability z-score (potassium arsenate): -0.445 | thermal stability z-score (lipoamide; [1]): 0.286 | thermal stability z-score (lipoamide; arsenate co-treatment: none): 0.37

INPP5J (UniProt Q15735)
thermal stability z-score (potassium arsenate): -0.471 | thermal stability z-score (lipoamide; [1]): -0.307 | thermal stability z-score (lipoamide; arsenate co-treatment: none): -0.456

FBXL12 (UniProt Q9NXK8)
UniProt Q9NXK8, sequence (Q9NXK8 whole entry): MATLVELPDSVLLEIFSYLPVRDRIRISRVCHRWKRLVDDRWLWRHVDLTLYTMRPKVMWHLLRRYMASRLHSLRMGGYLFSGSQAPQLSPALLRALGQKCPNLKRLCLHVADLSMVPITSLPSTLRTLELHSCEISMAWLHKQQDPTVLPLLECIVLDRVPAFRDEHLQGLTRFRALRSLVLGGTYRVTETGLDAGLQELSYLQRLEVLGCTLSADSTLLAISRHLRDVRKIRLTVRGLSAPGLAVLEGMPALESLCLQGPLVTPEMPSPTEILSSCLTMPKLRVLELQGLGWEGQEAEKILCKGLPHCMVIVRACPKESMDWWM
thermal stability z-score (potassium arsenate): -0.29 | thermal stability z-score (lipoamide; [1]): -0.195 | thermal stability z-score (lipoamide; arsenate co-treatment: none): 0.0639

CHD1L (UniProt Q86WJ1)
thermal stability z-score (potassium arsenate): -0.109 | thermal stability z-score (lipoamide; [1]): -0.114 | thermal stability z-score (lipoamide; arsenate co-treatment: none): -0.0149

RIC8B (UniProt Q9NVN3)
thermal stability z-score (potassium arsenate): -0.00195 | thermal stability z-score (lipoamide; [1]): -1.09 | thermal stability z-score (lipoamide; arsenate co-treatment: none): -0.233

ABLIM1 (UniProt O14639)
thermal stability z-score (potassium arsenate): -1.82 | thermal stability z-score (lipoamide; [1]): 0.77 | thermal stability z-score (lipoamide; arsenate co-treatment: none): 1.47

BCL9 (UniProt O00512)
thermal stability z-score (potassium arsenate): 0.421 | thermal stability z-score (lipoamide; [1]): 0.363 | thermal stability z-score (lipoamide; arsenate co-treatment: none): 1.23

ZMYM2 (UniProt Q9UBW7)
UniProt Q9UBW7, sequence (Q9UBW7 whole entry): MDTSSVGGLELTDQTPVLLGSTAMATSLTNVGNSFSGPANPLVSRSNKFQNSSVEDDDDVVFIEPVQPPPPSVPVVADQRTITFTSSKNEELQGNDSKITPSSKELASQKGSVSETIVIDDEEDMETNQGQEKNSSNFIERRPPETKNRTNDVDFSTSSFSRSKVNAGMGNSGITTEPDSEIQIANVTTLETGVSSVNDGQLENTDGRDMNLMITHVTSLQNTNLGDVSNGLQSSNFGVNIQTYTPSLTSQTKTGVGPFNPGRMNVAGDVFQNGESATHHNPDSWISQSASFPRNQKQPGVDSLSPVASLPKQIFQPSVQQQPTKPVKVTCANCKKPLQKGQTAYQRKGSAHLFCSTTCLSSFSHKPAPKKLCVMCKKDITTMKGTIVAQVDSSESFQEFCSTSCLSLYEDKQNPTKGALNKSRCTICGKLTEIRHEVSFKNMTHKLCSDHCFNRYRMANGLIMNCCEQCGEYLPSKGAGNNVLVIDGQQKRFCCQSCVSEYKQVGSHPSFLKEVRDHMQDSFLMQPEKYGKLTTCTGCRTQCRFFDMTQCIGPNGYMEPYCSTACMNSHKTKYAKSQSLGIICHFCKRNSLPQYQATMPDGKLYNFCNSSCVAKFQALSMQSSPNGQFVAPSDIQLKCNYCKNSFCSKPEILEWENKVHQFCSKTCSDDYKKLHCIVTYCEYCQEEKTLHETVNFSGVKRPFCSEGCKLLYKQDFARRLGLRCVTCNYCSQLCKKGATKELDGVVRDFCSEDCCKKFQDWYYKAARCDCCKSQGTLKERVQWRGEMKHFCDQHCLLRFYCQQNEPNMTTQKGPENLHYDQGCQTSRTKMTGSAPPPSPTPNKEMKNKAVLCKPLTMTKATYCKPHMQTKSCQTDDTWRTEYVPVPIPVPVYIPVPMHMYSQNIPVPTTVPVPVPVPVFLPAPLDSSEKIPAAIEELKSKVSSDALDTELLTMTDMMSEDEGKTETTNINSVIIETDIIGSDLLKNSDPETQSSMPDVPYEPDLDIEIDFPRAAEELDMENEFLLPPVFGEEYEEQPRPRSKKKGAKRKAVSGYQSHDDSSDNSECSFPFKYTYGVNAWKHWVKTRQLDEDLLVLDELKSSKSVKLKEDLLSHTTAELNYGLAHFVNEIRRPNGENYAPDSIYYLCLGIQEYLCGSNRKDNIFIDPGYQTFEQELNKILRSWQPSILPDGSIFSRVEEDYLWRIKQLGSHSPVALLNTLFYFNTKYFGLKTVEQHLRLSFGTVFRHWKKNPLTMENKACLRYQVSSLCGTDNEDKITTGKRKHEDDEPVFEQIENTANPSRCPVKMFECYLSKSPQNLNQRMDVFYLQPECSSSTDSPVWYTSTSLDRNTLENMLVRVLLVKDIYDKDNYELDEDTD
thermal stability z-score (potassium arsenate): -0.802 | thermal stability z-score (lipoamide; [1]): -0.105 | thermal stability z-score (lipoamide; arsenate co-treatment: none): -0.0436

SLCO4A1 (UniProt Q96BD0)
thermal stability z-score (potassium arsenate): 0.0663 | thermal stability z-score (lipoamide; [1]): 0.0123 | thermal stability z-score (lipoamide; arsenate co-treatment: none): -0.101

EXOC6 (UniProt Q8TAG9)
thermal stability z-score (potassium arsenate): -0.201 | thermal stability z-score (lipoamide; [1]): -0.242 | thermal stability z-score (lipoamide; arsenate co-treatment: none): -0.374

MRAS (UniProt O14807)
thermal stability z-score (potassium arsenate): 0.0682 | thermal stability z-score (lipoamide; [1]): 0.488 | thermal stability z-score (lipoamide; arsenate co-treatment: none): -0.67

PAIP1 (UniProt Q9H074)
thermal stability z-score (potassium arsenate): 0.0886 | thermal stability z-score (lipoamide; [1]): 0.875 | thermal stability z-score (lipoamide; arsenate co-treatment: none): 0.836

IST1 (UniProt P53990)
thermal stability z-score (potassium arsenate): 0.351 | thermal stability z-score (lipoamide; [1]): 0.453 | thermal stability z-score (lipoamide; arsenate co-treatment: none): 0.367

EDRF1 (UniProt Q3B7T1)
thermal stability z-score (potassium arsenate): -0.168 | thermal stability z-score (lipoamide; [1]): -0.147 | thermal stability z-score (lipoamide; arsenate co-treatment: none): -0.327

NCDN (UniProt Q9UBB6)
thermal stability z-score (potassium arsenate): 0.288 | thermal stability z-score (lipoamide; [1]): 0.164 | thermal stability z-score (lipoamide; arsenate co-treatment: none): -0.266

RHOBTB3 (UniProt O94955)
thermal stability z-score (potassium arsenate): -0.0881 | thermal stability z-score (lipoamide; [1]): 0.00346 | thermal stability z-score (lipoamide; arsenate co-treatment: none): 0.217

NUP58 (UniProt Q9BVL2)
thermal stability z-score (potassium arsenate): 0.865 | thermal stability z-score (lipoamide; [1]): 2.2 | thermal stability z-score (lipoamide; arsenate co-treatment: none): 0.178

TYSND1 (UniProt Q2T9J0)
thermal stability z-score (potassium arsenate): -0.646 | thermal stability z-score (lipoamide; [1]): -0.12 | thermal stability z-score (lipoamide; arsenate co-treatment: none): -0.377

SND1 (UniProt Q7KZF4)
UniProt Q7KZF4, sequence (Q7KZF4 whole entry): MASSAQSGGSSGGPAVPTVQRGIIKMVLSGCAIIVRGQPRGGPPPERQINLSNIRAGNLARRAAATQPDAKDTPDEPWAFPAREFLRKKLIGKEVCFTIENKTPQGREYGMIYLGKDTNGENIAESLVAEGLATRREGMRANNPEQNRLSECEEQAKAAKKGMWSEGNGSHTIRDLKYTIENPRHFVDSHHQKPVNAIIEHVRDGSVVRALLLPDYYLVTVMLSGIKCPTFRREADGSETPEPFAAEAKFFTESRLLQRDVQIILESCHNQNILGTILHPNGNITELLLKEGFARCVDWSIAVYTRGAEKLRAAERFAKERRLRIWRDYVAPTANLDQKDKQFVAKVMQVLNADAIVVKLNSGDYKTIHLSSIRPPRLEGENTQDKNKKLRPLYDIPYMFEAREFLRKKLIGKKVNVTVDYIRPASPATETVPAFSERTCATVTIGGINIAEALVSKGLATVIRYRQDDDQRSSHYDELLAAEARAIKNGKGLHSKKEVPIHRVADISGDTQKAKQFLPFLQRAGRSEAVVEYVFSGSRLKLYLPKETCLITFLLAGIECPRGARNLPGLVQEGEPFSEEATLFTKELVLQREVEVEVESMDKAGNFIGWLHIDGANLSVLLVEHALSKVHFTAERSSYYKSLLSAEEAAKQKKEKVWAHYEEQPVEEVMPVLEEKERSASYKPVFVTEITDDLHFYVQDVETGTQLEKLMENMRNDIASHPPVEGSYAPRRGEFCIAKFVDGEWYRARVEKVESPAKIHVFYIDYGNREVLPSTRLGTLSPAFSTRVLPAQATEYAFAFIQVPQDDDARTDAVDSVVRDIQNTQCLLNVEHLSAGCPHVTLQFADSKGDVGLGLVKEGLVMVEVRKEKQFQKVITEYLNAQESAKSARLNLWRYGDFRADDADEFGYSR
thermal stability z-score (potassium arsenate): -1.08 | thermal stability z-score (lipoamide; [1]): 0.317 | thermal stability z-score (lipoamide; arsenate co-treatment: none): 0.479

GSK3B (UniProt P49841)
thermal stability z-score (potassium arsenate): 0.326 | thermal stability z-score (lipoamide; [1]): -0.109 | thermal stability z-score (lipoamide; arsenate co-treatment: none): -0.308

PSMA2 (UniProt P25787)
thermal stability z-score (potassium arsenate): -0.132 | thermal stability z-score (lipoamide; [1]): 0.38 | thermal stability z-score (lipoamide; arsenate co-treatment: none): 0.455

PI4K2A (UniProt Q9BTU6)
thermal stability z-score (potassium arsenate): -0.0745 | thermal stability z-score (lipoamide; [1]): 0.0172 | thermal stability z-score (lipoamide; arsenate co-treatment: none): -0.189

PARP2 (UniProt Q9UGN5)
thermal stability z-score (potassium arsenate): -0.0979 | thermal stability z-score (lipoamide; [1]): 0.0296 | thermal stability z-score (lipoamide; arsenate co-treatment: none): -0.0685

P3H1 (UniProt Q32P28)
thermal stability z-score (potassium arsenate): 1.2 | thermal stability z-score (lipoamide; [1]): -4.35 | thermal stability z-score (lipoamide; arsenate co-treatment: none): -3.23

TYMP (UniProt P19971)
thermal stability z-score (potassium arsenate): 0.13 | thermal stability z-score (lipoamide; [1]): 0.856 | thermal stability z-score (lipoamide; arsenate co-treatment: none): 0.677

PDIA3 (UniProt P30101)
thermal stability z-score (potassium arsenate): 0.907 | thermal stability z-score (lipoamide; [1]): -3.75 | thermal stability z-score (lipoamide; arsenate co-treatment: none): -2.98
